From patent publication US10793536B2, “Vortioxetine pamoic acid salt and crystal form thereof” (SHANGHAI SYNERGY PHARMACEUTICAL SCIENCES CO., LTD, priority 2016, dated 2020)
Where two headings read alike, the source gives them in different places.

What was measured:
[1] = Wistar rat, single intramuscular injection 45.6 mg/kg; for AUC(0-t), Mean / AUC(0-∞), Mean / Cmax, Mean / MRT(0-∞), Mean / Tmax, Mean / t1/2z, Mean: non-compartment model
Method: Weighing 75.1 mg of each of crystal forms A, B and D of vortioxetine semi pamoic acid, adding 1 mL diluent (water for Injection containing 1% CMC-Na and 5% mannitol) to each of them, and whirling for 2 min to obtain 3 suspensions (pH˜7) of 3 crystal forms with a concentration of 45.6 mg/mL.
Drugs are administered to 9 male clean Wistar rats (Shanghai Sippr BK Laboratory Animals Ltd) with a weight range of 183.0˜186.3 g in accordance with Table 4.
Collecting blood samples by jugular puncture, about 0.2 mL for each sample, resisting against blood coagulation using heparin sodium, placing the collected blood samples on ice, wherein the blood collecting time is as follows: 30 min, 1 hrs, 2 hrs, 4 hrs, 8 hrs, 24 hrs, 48 hrs, 72 hrs, 120 hrs, 168 hrs, 216 hrs, 264 hrs, 312 hrs, 360 hrs, 504 hrs, and 672 hrs […] after administration of drug; placing the collected blood samples on ice, and separating the blood plasma centrifugally (centrifugal condition: 8,000 revolutions/min, 6 minutes, 2-8° C.); storing the collected blood plasma at −70° C. before analysis.
Separately calculating the pharmacokinetic parameters AUC0-t, AUC0-∞, MRT0-∞, Cmax, Tmax, T1/2 etc. of the tested samples using a non-compartment model for pharmacokinetic calculation software WinNonlin5.2 according to the blood concentration data of the drug. For samples with a concentration lower than the quantitative lower limit, when the pharmacokinetic parameters are calculated, the samples sampled before reaching Cmax should be calculated at zero value; after reaching Cmax, the samples at the sample point should be calculated by “below the limit of quantitation” (BLQ).

[2] = single dose of vortioxetine injected to the body of the rat; FDA pharmacological summary document No. 204447Orig 1s000; cited from earlier work

Structure (SMILES) | Concentration of vortioxetine in plasma, Mean ([1]; blood sampling time 0.5 h) | Concentration of vortioxetine in plasma, Mean ([1]; blood sampling time 1 h) | Concentration of vortioxetine in plasma, Mean ([1]; blood sampling time 2 h) | Concentration of vortioxetine in plasma, Mean ([1]; blood sampling time 4 h) | Concentration of vortioxetine in plasma, Mean ([1]; blood sampling time 8 h) | Concentration of vortioxetine in plasma, Mean ([1]; blood sampling time 24 h) | Concentration of vortioxetine in plasma, Mean ([1]; blood sampling time 48 h) | Concentration of vortioxetine in plasma, Mean ([1]; blood sampling time 72 h) | Concentration of vortioxetine in plasma, Mean ([1]; blood sampling time 120 h) | Concentration of vortioxetine in plasma, Mean ([1]; blood sampling time 168 h) | Concentration of vortioxetine in plasma, Mean ([1]; blood sampling time 216 h) | Concentration of vortioxetine in plasma, Mean ([1]; blood sampling time 264 h) | Concentration of vortioxetine in plasma, Mean ([1]; blood sampling time 312 h) | Concentration of vortioxetine in plasma, Mean ([1]; blood sampling time 360 h) | Concentration of vortioxetine in plasma, Mean ([1]; blood sampling time 504 h) | Concentration of vortioxetine in plasma, Mean ([1]; blood sampling time 672 h) | AUC(0-t), Mean [1] | AUC(0-∞), Mean [1] | Cmax, Mean [1] | MRT(0-∞), Mean [1] | other results
Cc1ccc(Sc2ccccc2N2CCNCC2)c(C)c1.Cc1ccc(Sc2ccccc2N2CCNCC2)c(C)c1.O=C(O)c1cc2ccccc2c(Cc2c(O)c(C(=O)O)cc3ccccc23)c1O [Crystal form A of vortioxetine semi pamoic acid salt] [Crystal Form a Vortioxetine Semi Pamoic Acid Salt] | 0.00312 µg/mL | 0.0058 µg/mL | 0.00841 µg/mL | 0.01075 µg/mL | 0.01622 µg/mL | 0.01577 µg/mL | 0.0087 µg/mL | 0.01168 µg/mL | 0.03538 µg/mL | 0.03134 µg/mL | 0.01335 µg/mL | 0.00629 µg/mL | 0.00407 µg/mL | 0.00226 µg/mL | 0.00173 µg/mL | 0.00188 µg/mL | 6.14308 µg·h/mL | 6.50321 µg·h/mL | 0.03818 µg/mL | 227.18 h | Tmax, Mean [1]: 136.00 h; t1/2z, Mean [1]: 126.06 h
Cc1ccc(Sc2ccccc2N2CCNCC2)c(C)c1.Cc1ccc(Sc2ccccc2N2CCNCC2)c(C)c1.O=C(O)c1cc2ccccc2c(Cc2c(O)c(C(=O)O)cc3ccccc23)c1O [Crystal form B of vortioxetine semi pamoic acid salt] [Crystal Form B Vortioxetine Semi Pamoic Acid Salt] | 0.00214 µg/mL | 0.00456 µg/mL | 0.01017 µg/mL | 0.01805 µg/mL | 0.02112 µg/mL | 0.01767 µg/mL | 0.01456 µg/mL | 0.01565 µg/mL | 0.03247 µg/mL | 0.04021 µg/mL | 0.024 µg/mL | 0.01519 µg/mL | 0.01055 µg/mL | 0.00602 µg/mL | 0.00262 µg/mL | 0.00206 µg/mL | 8.58842 µg·h/mL | 8.93949 µg·h/mL | 0.04021 µg/mL | 226.30 h | Tmax, Mean [1]: 168 h; t1/2z, Mean [1]: 116.6 h
Cc1ccc(Sc2ccccc2N2CCNCC2)c(C)c1.Cc1ccc(Sc2ccccc2N2CCNCC2)c(C)c1.O=C(O)c1cc2ccccc2c(Cc2c(O)c(C(=O)O)cc3ccccc23)c1O [Crystal form D of vortioxetine semi pamoic acid salt] [Crystal Form D Vortioxetine Semi Pamoic Acid Salt] | 0.00434 µg/mL | 0.0081 µg/mL | 0.01159 µg/mL | 0.01537 µg/mL | 0.02328 µg/mL | 0.02408 µg/mL | 0.01411 µg/mL | 0.01952 µg/mL | 0.04199 µg/mL | 0.0462 µg/mL | 0.01602 µg/mL | 0.00566 µg/mL | 0.00366 µg/mL | 0.00203 µg/mL | 0.00156 µg/mL | 0.00169 µg/mL | 7.85657 µg·h/mL | 8.39202 µg·h/mL | 0.04865 µg/mL | 162.48 h | Tmax, Mean [1]: 152.00 h; t1/2z, Mean [1]: 228.84 h
Cc1ccc(Sc2ccccc2N2CCNCC2)c(C)c1 [vortioxetine, 1-[2-(2,4-dimethylphenylthiorueaalkyl)phenyl] piperazine] |  |  |  |  |  |  |  |  |  |  |  |  |  |  |  |  |  |  |  |  | half-life period t1/2 [2]: more than two hours
